In patent publication US7718688B2, “Nitrobenzindoles and their use in cancer therapy” (Auckland Uniservices Limited, priority 2004, dated 2010):
pIC50: −log10 of the molar value.

Key:
[1] = tested on: HT29: human colon cancer cell line; assay: Proliferation IC50 assay, oxic/hypoxic, HT29; format: cell-based; details: for pIC50: Homo sapiens, HT-29, 4 h exposure under aerobic conditions; for HCR (hypoxic cytotoxicity ratio) HT29: IC50(aerobic)/IC10(hypoxic); for HCR HT29: IC50(aerobic)/IC50(hypoxic)
[2] = tested on: SKOV3: human ovarian carcinoma cell line; assay: Proliferation IC50 assay, oxic/hypoxic, SKOV3; format: cell-based; details: for pIC50: Homo sapiens, SK-OV-3, 4 h exposure under aerobic conditions; for HCR (hypoxic cytotoxicity ratio) SKOV3: IC50(aerobic)/IC10(hypoxic); for HCR SKOV3: IC50(aerobic)/IC50(hypoxic)

| SMILES | melting point | pIC50 ([1]; Table 3) | HCR (hypoxic cytotoxicity ratio) HT29 ([1]; Table 3) | pIC50 ([2]; Table 3) | HCR (hypoxic cytotoxicity ratio) SKOV3 ([2]; Table 3) | pIC50 ([1]; Table 4) | HCR HT29 ([1]; Table 4) | pIC50 ([2]; Table 4) | HCR SKOV3 ([2]; Table 4) |
| --- | --- | --- | --- | --- | --- | --- | --- | --- | --- |
| COC(=O)c1ccc2c3c(cc([N+](=O)[O-])c2c1)N(C(=O)c1cc2cc(OC)c(OC)c(OC)c2[nH]1)CC3CCl (stereo not drawn) [Compound 13, Methyl 1-(chloromethyl)-3-(5,6,7-trimethoxyindol-2-carbonyl)-5-nitro-1,2-dihydro-3H-benzo[e]indole-7-carboxylate] | 256 to 257 °C | 5.72 | 3.2 | 5.96 | 4.0 |  |  |  |  |
| COc1cc2cc(C(=O)N3CC(CCl)c4c3cc([N+](=O)[O-])c3cc(C(N)=O)ccc43)[nH]c2c(OC)c1OC (stereo not drawn) [Compound 15, 1-(Chloromethyl)-5-nitro-3-[5,6,7-trimethoxyindol-2-carbonyl]-1,2-dihydro-3H-benzo[e]indole-7-carboxamide] | 287 to 289 °C | 5.10 | 2.8 | 5.24 | 6.1 |  |  |  |  |
| COc1ccc(/C=C/C(=O)N2CC(CCl)c3c2cc([N+](=O)[O-])c2cc(C(=O)NCCO)ccc32)cc1 (stereo not drawn) [Compound 18, 1-(Chloromethyl)-N-(2-hydroxyethyl)-3-[(E)-4-methoxycinnamoyl]-5-nitro-1,2-dihydro-3H-benzo[e]indole7-carboxamide] | 240 to 241 °C | 5.36 | 4.4 | 5.32 | 4.7 |  |  |  |  |
| COc1cc2cc(C(=O)N3CC(CCl)c4c3cc([N+](=O)[O-])c3cc(S(C)(=O)=O)ccc43)[nH]c2c(OC)c1OC (stereo not drawn) [Compound 23, 1-(Chloromethyl)-7-(methylsulfonyl)-5-nitro-3-(5,6,7-trimethoxyindol-2-carbonyl)-1,2-dihydro-3H-benzo[e]indole] | 296 to 297 °C (dec.) | 4.85 | 2.0 | 4.77 | 1.9 |  |  |  |  |
| COc1ccc(/C=C/C(=O)N2CC(CCl)c3c2cc([N+](=O)[O-])c2cc(S(N)(=O)=O)ccc32)cc1O (stereo not drawn) [Compound 27, 1-(Chloromethyl)-3-[(2E)-3-(3-hydroxy-4-methoxyphenyl)-2-propenoyl]-5-nitro-1,2-dihydro-3H-benzo[e]indole-7-sulfonamide] | 220 to 225 °C | 5.62 | 1.8 | 4.89 | 31 |  |  |  |  |
| COc1ccc(/C=C/C(=O)N2CC(CCl)c3c2cc([N+](=O)[O-])c2cc(S(=O)(=O)NCCO)ccc32)cc1 (stereo not drawn) [Compound 37, 1-(Chloromethyl)-N-(2-hydroxyethyl)-3-[(E)-4-methoxycinnamoyl]-5-nitro-1,2-dihydro-3H-benzo[e]indole-7-sulfonamide] | 250 to 251 °C | 5.32 | 1.3 | 5.33 | 3.4 |  |  |  |  |
| CC(=O)c1ccc2c([N+](=O)[O-])cc3c(c2c1)C(CCl)CN3C(=O)c1cc2cc(OCCN(C)C)ccc2[nH]1 (stereo not drawn) [Compound 41, 8-Acetyl-1-(chloromethyl)-3-{5-[2-(dimethylamino)ethoxy]indol-2-carbonyl}-5-nitro-1,2-dihydro-3H-benzo[e]indole] | 210 to 215 °C | 6.82 | 1.1 | 6.70 | 1.3 |  |  |  |  |
| COc1cc2cc(C(=O)N3CC(CCl)c4c3cc([N+](=O)[O-])c3ccc(S(C)(=O)=O)cc43)[nH]c2c(OC)c1OC (stereo not drawn) [Compound 46, 1-(Chloromethyl)-8-(methylsulfonyl)-5-nitro-3-(5,6,7-trimethoxyindol-2-carbonyl)-1,2-dihydro-3H-benzo[e]indole] | 265 °C | 4.85 | 2.5 | 4.96 | 4.2 |  |  |  |  |
| COc1cc2cc(C(=O)N3CC(CCl)c4c3cc([N+](=O)[O-])c3ccc(S(N)(=O)=O)cc43)[nH]c2c(OC)c1OC (stereo not drawn) [Compound 48, 1-(Chloromethyl)-5-nitro-3-(5,6,7-trimethoxyindol-2-carbonyl)-1,2-dihydro-3H-benzo[e]indole-8-sulfonamide] | 264 to 266 °C (dec.) | 4.62 | 1.9 | 4.92 | 2.6 |  |  |  |  |
| CC(=O)c1ccc2c3c(cc(N)c2c1)N(C(=O)c1cc2cc(OCCN(C)C)ccc2[nH]1)CC3CCl (stereo not drawn) [Compound 53, 7-Acetyl-5-amino-1-(chloromethyl)-3-{5-[2-(dimethylamino)ethoxy]indol-2-carbonyl}-1,2-dihydro-3H-benzo[e]indole] | 220 to 224 °C (dec.) |  |  |  |  | 8.12 | 1.5 | 7.96 | 1.4 |
| COC(=O)c1ccc2c3c(cc(N)c2c1)N(C(=O)c1cc2cc(OCCN(C)C)ccc2[nH]1)CC3CCl (stereo not drawn) [Compound 54, Methyl 5-amino-1-(chloromethyl)-3-{5-[2-(dimethylamino)ethoxy]indol-2-carbonyl}-1,2-dihydro-3H-benzo[e]indole-7-carboxylate] | 225 to 230 °C |  |  |  |  | 8.07 | 1.7 | 8.11 | 0.91 |
| CN(C)CCOc1ccc2[nH]c(C(=O)N3CC(CCl)c4c3cc(N)c3cc(C(N)=O)ccc43)cc2c1 (stereo not drawn) [Compound 55, 5-Amino-1-(chloromethyl)-3-{5-[2-(dimethylamino)ethoxy]indol-2-carbonyl}-1,2-dihydro-3H-benzo[e]indole-7-carboxamide] | 232 to 236 °C (dec.) |  |  |  |  | 7.21 | 1.4 | 7.89 | 1.0 |
| CN(C)CCOc1ccc2[nH]c(C(=O)N3CC(CCl)c4c3cc(N)c3cc(C#N)ccc43)cc2c1 (stereo not drawn) [Compound 56, 5-Amino-1-(chloromethyl)-3-{5-[2-(dimethylamino)ethoxy]indol-2-carbonyl}-1,2-dihydro-3H-benzo[e]indole-7-carbonitrile] | 250 to 255 °C (dec.) |  |  |  |  | 7.77 | 2.0 | 7.89 | 1.1 |
| COc1cc2cc(C(=O)N3CC(CCl)c4c3cc(N)c3cc(S(C)(=O)=O)ccc43)[nH]c2c(OC)c1OC (stereo not drawn) [Compound 57, 5-Amino-1-(chloromethyl)-7-(methylsulfonyl)-3-(5,6,7-trimethoxyindol-2-carbonyl)-1,2-dihydro-3H-benzo[e]indole] | 266 to 268 °C |  |  |  |  | 7.49 | 0.86 | 7.49 | 1.2 |
| CN(C)CCOc1ccc2[nH]c(C(=O)N3CC(CCl)c4c3cc(N)c3cc(S(C)(=O)=O)ccc43)cc2c1 (stereo not drawn) [Compound 58, 5-Amino-1-(chloromethyl)-3-{5-[2-(dimethylamino)ethoxy]indol-2-carbonyl}-7-(methylsulfonyl)-1,2-dihydro-3H-benzo[e]indole] | 280 to 285 °C |  |  |  |  | 7.96 | 1.6 | 7.85 | 1.7 |
| COc1cc2cc(C(=O)N3CC(CCl)c4c3cc(N)c3cc(S(N)(=O)=O)ccc43)[nH]c2c(OC)c1OC (stereo not drawn) [Compound 59, 5-Amino-1-(chloromethyl)-3-(5,6,7-trimethoxyindol-2-carbonyl)-1,2-dihydro-3H-benzo[e]indole-7-sulfonamide] | 240 to 245 °C (dec.) |  |  |  |  | 7.07 | 1.1 | 7.39 | 1.3 |
| CN(C)CCOc1ccc2[nH]c(C(=O)N3CC(CCl)c4c3cc(N)c3cc(S(N)(=O)=O)ccc43)cc2c1 (stereo not drawn) [Compound 60, 5-Amino-1-(chloromethyl)-3-{5-[2-(dimethylamino)ethoxy]indol-2-carbonyl}-1,2-dihydro-3H-benzo[e]indole-7-sulfonamide] | 260 to 266 °C (dec.) |  |  |  |  | 7.46 | 1.8 | 7.64 | 1.4 |
| CNS(=O)(=O)c1ccc2c3c(cc(N)c2c1)N(C(=O)c1cc2cc(OCCN(C)C)ccc2[nH]1)CC3CCl (stereo not drawn) [Compound 61, 5-Amino-1-(chloromethyl)-3-{5-[2-(dimethylamino)ethoxy]indol-2-carbonyl}-N-methyl-1,2-dihydro-3H-benzo[e]indole-7-sulfonamide] | 260 to 265 °C (dec.) |  |  |  |  | 7.62 | 1.2 | 7.70 | 1.8 |
| CN(C)CCOc1ccc2[nH]c(C(=O)N3CC(S(=O)(=O)NCCO)c4c3cc(N)c3c(CCl)cccc43)cc2c1 (stereo not drawn) [Compound 62, 5-Amino-6-(chloromethyl)-3-{5-[2-(dimethylamino)ethoxy]indol-2-carbonyl}-N-(2-hydroxyethyl)-1,2-dihydro-3H-benzo[e]indole-1-sulfonamide] | 225 to 230 °C |  |  |  |  | 7.03 | 1.0 | 7.47 | 1.1 |
| COc1cc2cc(C(=O)N3CC(CCl)c4c3cc(N)c3ccc(S(C)(=O)=O)cc43)[nH]c2c(OC)c1OC (stereo not drawn) [Compound 63, 5-Amino-1-(chloromethyl)-8-(methylsulfonyl)-3-(5,6,7-trimethoxyindol-2-carbonyl)-1,2-dihydro-3H-benzo[e]indole] | 165 to 170 °C |  |  |  |  | 7.60 | 1.0 | 7.72 | 1.4 |
| CN(C)CCOc1ccc2[nH]c(C(=O)N3CC(CCl)c4c3cc(N)c3ccc(S(C)(=O)=O)cc43)cc2c1 (stereo not drawn) [Compound 64, 5-Amino-1-(chloromethyl)-3-{5-[2-(dimethylamino)ethoxy]indol-2-carbonyl}-8-(methylsulfonyl)-1,2-dihydro-3H-benzo[e]indole] | 235 to 240 °C |  |  |  |  | 7.54 | 1.9 | 7.74 | 1.5 |
